Laboratory results as given in ChEMBL document CHEMBL1201862, “PubChem BioAssay data set” (2004).
Values joined by “and” are separate entries in the source; they are usually repeats but may differ in a detail not shown here. Identical values can stand only once.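 1) Cells in 96-well plates. 2) Compound, 48 h, 5 concentrations. 3) Linear interpolation between surrounding doses. 4) Unreached endpoint = highest concentration. The concentration for 50% growth inhibition is given as GI50.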 Active and inactive are the calls of the source. Cut-off read from the data, not from the text of the source: active = GI50 up to about 1.1 µM and inactive = higher.

Key:
Assay in all cases: growth of human tumour cells (NCI), 48 h
OVCAR-8 = test system: OVCAR-8
786-0 = test system: 786-0
SK-OV-3 = test system: SK-OV-3
Malme-3M = test system: Malme-3M
SW-620 = test system: SW-620
HCT-116 = test system: HCT-116
NCI-H522 = test system: NCI-H522
UACC-62 = test system: UACC-62
COLO 205 = test system: COLO 205
TK-10 = test system: TK-10
SNB-19 = test system: SNB-19
RXF 393 = test system: RXF 393
HOP-92 = test system: HOP-92
SF-295 = test system: SF-295
M14 = test system: M14
MOLT-4 = test system: MOLT-4
SNB-75 = test system: SNB-75
A498 = test system: A498

| SMILES | GI50 (OVCAR-8) | GI50 (786-0) | GI50 (SK-OV-3) | GI50 (Malme-3M) | GI50 (SW-620) | GI50 (HCT-116) | GI50 (NCI-H522) | GI50 (UACC-62) | GI50 (COLO 205) | GI50 (TK-10) | GI50 (SNB-19) | GI50 (RXF 393) | GI50 (HOP-92) | GI50 (SF-295) | GI50 (M14) | GI50 (MOLT-4) | GI50 (SNB-75) | GI50 (A498) |
| --- | --- | --- | --- | --- | --- | --- | --- | --- | --- | --- | --- | --- | --- | --- | --- | --- | --- | --- |
| COc1ccc(/C=c2/sc3n(c2=O)NC(c2ccc(Cl)cc2)NN=3)cc1 (stereo not drawn) | > 100 µM (inactive) | > 100 µM (inactive) | > 100 µM (inactive) | > 100 µM (inactive) | > 100 µM (inactive) | > 100 µM (inactive) | > 100 µM (inactive) | > 100 µM (inactive) | > 100 µM (inactive) | > 100 µM (inactive) | > 100 µM (inactive) | > 100 µM (inactive) | 46.2 µM (inactive) | > 100 µM (inactive) | > 100 µM (inactive) | > 100 µM (inactive) | 23.1 µM (inactive) | – |
| Cc1nc(-c2nc(C)c(C(=O)NNC(=O)C[n+]3ccccc3)s2)sc1C(=O)NNC(=O)C[n+]1ccccc1 | > 100 µM (inactive) | 35.9 µM (inactive) | 87.5 µM (inactive) | > 100 µM (inactive) | > 100 µM (inactive) | 47 µM (inactive) | – | > 100 µM (inactive) | > 100 µM (inactive) | > 100 µM (inactive) | 25.4 µM (inactive) | 39.5 µM (inactive) | 27.5 µM (inactive) | 65.6 µM (inactive) | > 100 µM (inactive) | 22.7 µM (inactive) | 25.5 µM (inactive) | 58.6 µM (inactive) |
| Nc1nnc2c(-c3ccccc3)n[nH]c2n1 | 49.7 µM (inactive) | 62.4 µM (inactive) | – | – | 54.7 µM (inactive) | > 100 µM (inactive) | > 100 µM (inactive) | – | 34.4 µM (inactive) | 23 µM (inactive) | 57.1 µM (inactive) | 34.1 µM (inactive) | 12.6 µM (inactive) | 67 µM (inactive) | > 100 µM (inactive) | 21.7 µM (inactive) | – | 12.9 µM (inactive) |
| COC(=O)CC(C(C(C)=O)C(=O)OCc1ccccc1)N1C(=O)OC(c2ccccc2)C1c1ccccc1 (stereo not drawn) | 70.3 µM (inactive) and 71.1 µM (inactive) | > 100 µM (inactive) | > 100 µM (inactive) | > 100 µM (inactive) | > 100 µM (inactive) | 39.3 µM (inactive) and 24.2 µM (inactive) | 38.3 µM (inactive) and 22.9 µM (inactive) | 41.1 µM (inactive) and 45.4 µM (inactive) | 72.4 µM (inactive) and 77.4 µM (inactive) | > 100 µM (inactive) | – | – | – | 19.5 µM (inactive) and 30.8 µM (inactive) | – | 36.4 µM (inactive) and 42.3 µM (inactive) | – | – |
| CCCCOC1CC2(c3ccc(OC)cc3)C(=O)c3ccccc3N2O1 (stereo not drawn) | 82.2 µM (inactive) | 88.1 µM (inactive) | > 100 µM (inactive) | 19.2 µM (inactive) | 65 µM (inactive) | 37.5 µM (inactive) | 21.3 µM (inactive) | > 10 µM (inactive) | 27.1 µM (inactive) | > 100 µM (inactive) | > 10 µM (inactive) | 16.6 µM (inactive) | – | 42.1 µM (inactive) | 46.1 µM (inactive) | 19 µM (inactive) | > 100 µM (inactive) | > 10 µM (inactive) |
| COC(=O)CSc1ccccc1 | > 100 µM (inactive) | 11.6 µM (inactive) | > 100 µM (inactive) | 25.4 µM (inactive) | > 100 µM (inactive) | > 100 µM (inactive) | – | > 100 µM (inactive) | > 100 µM (inactive) | > 100 µM (inactive) | > 100 µM (inactive) | > 100 µM (inactive) | 50.9 µM (inactive) | > 100 µM (inactive) | > 100 µM (inactive) | > 100 µM (inactive) | > 100 µM (inactive) | > 100 µM (inactive) |
| CC(C)OP(=S)(NC(=S)c1ccccc1)OC(C)C | > 100 µM (inactive) | > 100 µM (inactive) | > 100 µM (inactive) | > 100 µM (inactive) | > 100 µM (inactive) | > 100 µM (inactive) | – | > 100 µM (inactive) | > 100 µM (inactive) | > 100 µM (inactive) | > 100 µM (inactive) | – | > 100 µM (inactive) | 76.2 µM (inactive) | > 100 µM (inactive) | > 100 µM (inactive) | > 100 µM (inactive) | > 100 µM (inactive) |
| COC1/C(=C\C(=O)OC(C)(C)C)c2ccccc2N1C(C)=O (stereo not drawn) | > 100 µM (inactive) | > 100 µM (inactive) | > 100 µM (inactive) | – | > 100 µM (inactive) | > 100 µM (inactive) | – | > 100 µM (inactive) | > 100 µM (inactive) | – | > 100 µM (inactive) | 26.6 µM (inactive) | – | > 100 µM (inactive) | > 100 µM (inactive) | 81.7 µM (inactive) | > 100 µM (inactive) | > 100 µM (inactive) |
| COc1cc2cc[n+]3c4cc(OC)c(OC)cc4c(C)cc3c2cc1OC | > 100 µM (inactive) | > 100 µM (inactive) | > 100 µM (inactive) | > 100 µM (inactive) | > 100 µM (inactive) | > 100 µM (inactive) | > 100 µM (inactive) | > 100 µM (inactive) | 89.1 µM (inactive) | > 100 µM (inactive) | 29.3 µM (inactive) | – | > 100 µM (inactive) | > 100 µM (inactive) | > 100 µM (inactive) | > 100 µM (inactive) | 44.7 µM (inactive) | – |
| C=CCN1/C(=C2\SC(=S)N(c3ccc(C)cc3)C2=O)Sc2c1nc[nH]c2=O | > 100 µM (inactive) | > 100 µM (inactive) | > 100 µM (inactive) | 78.2 µM (inactive) | 65.3 µM (inactive) | > 100 µM (inactive) | 59.2 µM (inactive) | > 100 µM (inactive) | > 100 µM (inactive) | > 100 µM (inactive) | > 100 µM (inactive) | 26.4 µM (inactive) | > 100 µM (inactive) | 88.7 µM (inactive) | > 100 µM (inactive) | 58.9 µM (inactive) | – | > 100 µM (inactive) |
| Nc1ncnc2c1ncn2C1CC(OCc2ccccc2[N+](=O)[O-])C(CO)O1 (stereo not drawn) | 23.8 µM (inactive) | 43.4 µM (inactive) | 21.7 µM (inactive) | 20 µM (inactive) | 36 µM (inactive) | 17.4 µM (inactive) | 13.7 µM (inactive) | – | 9.2 µM (inactive) | 30.8 µM (inactive) | 46.1 µM (inactive) | 5.38 µM (inactive) | 21.4 µM (inactive) | 15.6 µM (inactive) | 15.6 µM (inactive) | 18.4 µM (inactive) | – | > 50 µM (inactive) |
| O=C1/C(=C\c2ccccc2)C2/C(=C\c3ccccc3)C(=O)/C(=C\c3ccccc3)C2/C1=C\c1ccccc1 (stereo not drawn) | 0.412 µM (active) | 1.22 µM (inactive) | 19.7 µM (inactive) | 1.77 µM (inactive) | 1.55 µM (inactive) | – | 0.592 µM (active) | 1.9 µM (inactive) | 1.52 µM (inactive) | 3.87 µM (inactive) | – | 1.53 µM (inactive) | 1.69 µM (inactive) | 2.07 µM (inactive) | 1.43 µM (inactive) | 0.437 µM (active) | 17.3 µM (inactive) | – |
